Where “and” joins values, the source holds several entries; their conditions need not be identical. Identical values can stand only once.
Tested on: 786-0 complex spheroids with HUVEC/MSC, growth % test/control
Test: Anticancer human tumor 786-0 cell line growth inhibition [AhR];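 note: compound exposure lasted seven days before the read-out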
Settings: for viability, T/C: stronger effect = lower value
Source text: Multicellular complex tumor spheroid response to aryl hydrocarbon receptor antagonists in combination with a variety of drugs and investigational agents in selected tumor cell lines
The current study was undertaken to assess response to aryl hydrocarbon receptor antagonists in combination with standard-of-care drugs and investigational agents in solid tumor complex spheroid models. Complex spheroids include a stromal component modeled by human endothelial cells (HUVEC) and fibroblasts modeled by human mesenchymal stem cells (MSCs). The concentration ranges selected for each drug and investigational agent were based upon clinically achievable concentrations if the clinical Cmax of the agent was known.
Compounds. The drugs and investigational agents: BAY 2416964 (NSC825713), GNF351 (NSC835774), CH-223191 (NSC835775), CPI-455 (NSC825282), aza-TdCyd (NSC777586), decitabine (NSC127716), belinostat (NSC758774), entinostat (NSC756642), pevonedistat (NSC761192), tazemetostat (NSC777109), talazoparib (NSC765396), olaparib (NSC753686), selinexor (NSC780203), nedisertib (M3814, NSC802822), bortezomib (NSC756655), venetoclax (NSC766270), doxorubicin (NSC123127), elimusertib (BAY189344, NSC800525), ceralasertib (AZD6738, NSC777638), TAK-243 (NSC785004), alisertib (NSC759677), etoposide (NSC141540), topotecan (NSC609699), eribulin (NSC707389), gemcitabine (NSC613327), carboplatin (NSC241240), cisplatin (NSC119875), and SN-38 (NSC673596) were obtained from the National Cancer Institute (NCI) Developmental Therapeutics Program Chemical Repository (32). The FDA-approved anticancer drug set is available from the Developmental Therapeutics Program at https://dtp.cancer.gov/organization/dscb/obtaining/available plates.htm. […] The stock solutions were prepared in dimethyl sulfoxide (DMSO, Sigma-Aldrich, St. Louis, MO, cat. D2650), except for the platinum compounds which were prepared in saline (Quality Biological, Gaithersburg, MD, cat. 114-055-101), at 800-fold the tested concentration and stored at -70 degrees C prior to their use. All drugs and investigational agents were tested over a range starting from a high concentration at or near the clinical Cmax and decreasing in half-log increments. If the clinical Cmax for an agent had not been determined, the highest concentration tested was 10 microM (Table 1).
Cell Culture. All cells were maintained in an incubator at 37 degrees C and 5% CO2 with 95% humidity. The PDC lines were cultured according to standard operating procedures established by the NCI PDMR (https://pdmr.cancer.gov). Briefly, all PDCs were thawed and cultured in Matrigel-coated flasks prepared with a working solution of 1X Ham's F-12 nutrient mix, without supplementation (Invitrogen, Waltham, MA, cat. 11765054), 100 U/mL penicillin-streptomycin (Invitrogen, cat. 15140122), and 2.5% Matrigel (Corning Inc., Corning, NY, cat. 354248) for the first three passages. All PDCs were cultured in complete DMEM/F-12 media containing advanced DMEM/F-12 (Invitrogen, cat. 12634028), 4.9% defined fetal bovine serum, heat inactivated (HyClone Laboratories Inc., Logan, UT, cat. SH30070.03HI), 389 ng/mL hydrocortisone (Sigma-Aldrich, cat. H4001), 9.7 ng/mL human EGF recombinant protein (Invitrogen, cat. PHG0313), 23.4 microg/mL adenine (Sigma-Aldrich, cat. A2786), 97.3 U/mL penicillin-streptomycin (Invitrogen, cat. 15140122), 1.9 mM L-glutamine (Invitrogen, cat. 25030081), and 9.7 microM Y-27632 dihydrochloride (Tocris Bioscience, Bristol, United Kingdom, cat. 1254). The PDCs were cultured in complete DMEM/F12 media without 10 microM Y-27632 dihydrochloride for at least two passages prior to the screen. The established cell lines NCI-H1341 and […] were cultured in DMEM/F-12, HEPES (Invitrogen, cat. 11330032), 5% defined fetal bovine serum (HyClone Laboratories Inc., cat. SH30070.03), ITS premix universal culture supplement [insulin (5 microg/mL), transferrin (5 microg/mL), and selenious acid (5 ng/mL)] […]

[1] = curve of first compound, second compound 0.1 µM
[2] = curve of first compound, second compound 0.316 µM
[3] = curve of first compound, second compound 1 µM
[4] = curve of first compound, second compound 3.16 µM
[5] = curve of first compound, second compound 10 µM
[6] = second compound 0.1 µM, first compound 0.0316 µM
[7] = second compound 0.1 µM, first compound 0.1 µM
[8] = second compound 0.316 µM, first compound 0.0316 µM
[9] = second compound 0.316 µM, first compound 0.1 µM
[10] = second compound 1 µM, first compound 0.0316 µM
[11] = second compound 1 µM, first compound 0.1 µM
[12] = second compound 3.16 µM, first compound 0.0316 µM
[13] = second compound 3.16 µM, first compound 0.1 µM
[14] = second compound 10 µM, first compound 0.0316 µM
[15] = second compound 10 µM, first compound 0.1 µM

SMILES: COc1cc(C2c3cc4c(cc3C(OC3OC5COC(C)OC5C(O)C3O)C3COC(=O)C23)OCO4)cc(OC)c1O (configuration not stated) + Cc1ccccc1N=Nc1ccc(NC(=O)c2ccnn2C)c(C)c1
- IC50 [1]: 937 nM
- IC50 [2]: 873 nM
- IC50 [3]: 1060 nM
- IC50 [4]: 885 nM
- IC50 [5]: 723 nM
- viability, T/C [6]: 110%
- viability, T/C [7]: 110%
- viability, T/C (second compound 0.1 µM, first compound 0.316 µM): 85.2%
- viability, T/C (second compound 0.1 µM, first compound 1 µM): 46.2%
- viability, T/C (second compound 0.1 µM, first compound 3.16 µM): 24.2%
- viability, T/C (second compound 0.1 µM, first compound 10 µM): 9.45%
- viability, T/C [8]: 110%
- viability, T/C [9]: 105%
- viability, T/C (second compound 0.316 µM, first compound 0.316 µM): 86.2%
- viability, T/C (second compound 0.316 µM, first compound 1 µM): 41.6%
- viability, T/C (second compound 0.316 µM, first compound 3.16 µM): 27.5%
- viability, T/C (second compound 0.316 µM, first compound 10 µM): 10.3%
- viability, T/C [10]: 107%
- viability, T/C [11]: 107%
- viability, T/C (second compound 1 µM, first compound 0.316 µM): 81.4%
- viability, T/C (second compound 1 µM, first compound 1 µM): 50.4%
- viability, T/C (second compound 1 µM, first compound 3.16 µM): 26.8%
- viability, T/C (second compound 1 µM, first compound 10 µM): 10.3%
- viability, T/C [12]: 103%
- viability, T/C [13]: 82.9%
- viability, T/C (second compound 3.16 µM, first compound 0.316 µM): 78%
- viability, T/C (second compound 3.16 µM, first compound 1 µM): 46.4%
- viability, T/C (second compound 3.16 µM, first compound 3.16 µM): 21.1%
- viability, T/C (second compound 3.16 µM, first compound 10 µM): 7.16%
- viability, T/C [14]: 96.8%
- viability, T/C [15]: 91.7%
- viability, T/C (second compound 10 µM, first compound 0.316 µM): 68.4%
- viability, T/C (second compound 10 µM, first compound 1 µM): 42.6%
- viability, T/C (second compound 10 µM, first compound 3.16 µM): 19.4%
- viability, T/C (second compound 10 µM, first compound 10 µM): 7%

SMILES: CC[C@@]1(O)C(=O)OCc2c1cc1n(c2=O)Cc2cc3c(CN(C)C)c(O)ccc3nc2-1 + Cc1cncc(-c2nc(NCCc3c[nH]c4ccccc34)c3ncn(C(C)C)c3n2)c1
- IC50 [1]: 61.6 nM
- IC50 [2]: 64.2 nM
- IC50 [3]: 56.1 nM
- IC50 [4]: 28.1 nM
- IC50 [5]: < 0.316 nM
- viability, T/C (second compound 0.1 µM, first compound 0.000316 µM): 116%
- viability, T/C (second compound 0.1 µM, first compound 0.001 µM): 118%
- viability, T/C (second compound 0.1 µM, first compound 0.00316 µM): 117%
- viability, T/C (second compound 0.1 µM, first compound 0.01 µM): 115%
- viability, T/C [6]: 91.1%
- viability, T/C [7]: 20.1%
- viability, T/C (second compound 0.316 µM, first compound 0.000316 µM): 113%
- viability, T/C (second compound 0.316 µM, first compound 0.001 µM): 107%
- viability, T/C (second compound 0.316 µM, first compound 0.00316 µM): 119%
- viability, T/C (second compound 0.316 µM, first compound 0.01 µM): 112%
- viability, T/C [8]: 99%
- viability, T/C [9]: 19.2%
- viability, T/C (second compound 1 µM, first compound 0.000316 µM): 109%
- viability, T/C (second compound 1 µM, first compound 0.001 µM): 109%
- viability, T/C (second compound 1 µM, first compound 0.00316 µM): 103%
- viability, T/C (second compound 1 µM, first compound 0.01 µM): 108%
- viability, T/C [10]: 83.5%
- viability, T/C [11]: 16%
- viability, T/C (second compound 3.16 µM, first compound 0.000316 µM): 73.4%
- viability, T/C (second compound 3.16 µM, first compound 0.001 µM): 78.5%
- viability, T/C (second compound 3.16 µM, first compound 0.00316 µM): 88.8%
- viability, T/C (second compound 3.16 µM, first compound 0.01 µM): 83%
- viability, T/C [12]: 46.5%
- viability, T/C [13]: 9.39%
- viability, T/C (second compound 10 µM, first compound 0.000316 µM): 15.5%
- viability, T/C (second compound 10 µM, first compound 0.001 µM): 11%
- viability, T/C (second compound 10 µM, first compound 0.00316 µM): 11.8%
- viability, T/C (second compound 10 µM, first compound 0.01 µM): 4.85%
- viability, T/C [14]: 1.61%
- viability, T/C [15]: 0.53%

SMILES: CC1COCCN1c1cc(C2(S(C)(=N)=O)CC2)nc(-c2ccnc3[nH]ccc23)n1 (configuration not stated)
- viability, T/C (compound 0.0316 µM): 110% and 102% and 98.7%
- viability, T/C (compound 0.1 µM): 110% and 102% and 98.6%
- viability, T/C (compound 0.316 µM): 96.8% and 101% and 93.2%
- viability, T/C (compound 1 µM): 96.6% and 96.8% and 94%
- viability, T/C (compound 3.16 µM): 64.5% and 88.2% and 47.7%
- viability, T/C (compound 10 µM): 17.9% and 27.9% and 15.4%
- IC50 (curve of compound): 4620 nM and 6580 nM and 2990 nM
